According to patent US8846393B2, “Methods of improving stem cell homing and engraftment” (Gamida-Cell Ltd., priority 2005, dated 2014):

Tested on: NOD/SCID mice
Experiment: In vivo analysis of homing of CFSE-labeled cells to bone marrow
From the text: FIGS. 1a-1i are a graphic representation of flow cytometry analysis of the effect of nicotinamide on homing of hematopoietic stem cells into bone marrow of NOD/SCID mice. Non-cultured mononuclear cells or their entire progeny following 3-week expansion with cytokines and nicotinamide (cytokines+NA), or cytokines alone (cytokines) were labeled with CFSE and infused into sublethally irradiated NOD/SCID mice (10×10^6 cells/mouse for the non-cultured group containing 5×10^4 CD34+ cells and the total progeny of 5×10^4 CD34+ cells following 3-week expansion with or without nicotinamide; 20×10^6 cells/mouse containing 180×10^4 CD34+ cells). FIG. 1a is a histogram of the results of flow cytometry of recipient's bone marrow cells showing homing of CFSE+/CD34+ cells after transplantation. FIG. 1b is a histogram of the results of flow cytometry of recipient's bone marrow cells showing homing of total CFSE+ cells after transplantation. Homing of human cells is presented as number of positive events (cytometry) per 100,000 BM cells analyzed. Each bar represents the average ±SE of 3 independent experiments (6-7 mice/experimental group). […] Total human cells that home to the BM are gated (see area R2) based on low side scatter (y axis) and log fluorescence distribution of CFSC expression (x axis) (FIGS. 1c-1f). The bright fluorescence of CFSE was sufficient to separate labeled human cells from unlabeled murine cells by at least 1 log. Cells gated in R2 were then analyzed for CFSE (x axis) and CD34-APC (y axis) (FIGS. 1g-1i). […] After labeling, cells were washed three times in PBS supplemented with 10% FCS and analyzed by flow cytometry for fluorescence intensity, then injected intravenously into sublethally irradiated NOD/SCID mice (10-20 million cells per mouse). […] Homing of human cells was detected by flow cytometry via visualization of CFSE-stained cells over a background of unlabeled murine cells. The bright fluorescence of CFSE was sufficient to separate labeled human cells from unlabeled murine cells by at least 1 log. […]

NC(=O)c1cccnc1 [nicotinamide]
homing of CD34+ cells to bone marrow relative to non-cultured CD34+ cells (3-week culture with cytokines + nicotinamide, 24 hours post transplantation, n=21, p<0.05): 6 fold | homing of cultured cells (MNC) compared to nicotinamide-untreated cells (3-week culture with cytokines + nicotinamide, total CFSE+ cells, 24 hours post transplantation, n=21, p<0.05): 2 fold | homing to bone marrow over identical cells cultured without nicotinamide (summary statement on Example 2, mononuclear cells exposed to nicotinamide before transplantation): sixfold
